According to US6911444B2, “Non-steroidal IL-5 inhibitors, processes and intermediates for their preparation and pharmaceutical compositions comprising said inhibitors” (Janssen Pharmaceutics N.V., priority 1999, dated 2005):

melting point [°C] | SMILES
149 | Cc1oc(=O)oc1COC(=O)Cc1sc(C(C)(C)c2c(Cl)cc(-n3ncc(=O)[nH]c3=O)cc2Cl)nc1-c1ccccc1 [Compound 72]
190 | CC(C)(c1nc(-c2ccccc2)c(CCC(=O)OC2CCOC2=O)s1)c1c(Cl)cc(-n2ncc(=O)[nH]c2=O)cc1Cl (centres unmarked) [Compound 81]
88 | COCCOC(=O)OC(C)OC(=O)c1sc(C(C)(C)c2c(Cl)cc(-n3ncc(=O)[nH]c3=O)cc2Cl)nc1-c1ccccc1 (centres unmarked) [Compound 99]
186 | CN(C)S(=O)(=O)N1CCN(CCO)CC1 [Compound 83]
126 | CC(C)(c1nc(-c2ccccc2)c(C(=O)OCCNS(=O)(=O)N2CCCCC2)s1)c1c(Cl)cc(-n2ncc(=O)[nH]c2=O)cc1Cl [Compound 77]
175 | CC(C)(c1nc(-c2ccccc2)c(C(=O)OC2CCCC(O)C2)s1)c1c(Cl)cc(-n2ncc(=O)[nH]c2=O)cc1Cl (centres unmarked) [Compound 140]
97 | Cc1oc(=O)oc1CSC(=O)c1sc(C(C)(C)c2c(Cl)cc(-n3ncc(=O)[nH]c3=O)cc2Cl)nc1-c1ccccc1 [Compound 71]
172 | C=CCOC(=O)c1sc(C(C)(C)c2c(Cl)cc(-n3ncc(=O)[nH]c3=O)cc2Cl)nc1-c1ccccc1 [Compound 87]
72 | CC(C)(c1nc(-c2ccccc2)c(CC(=O)OC2CCOC2=O)s1)c1c(Cl)cc(-n2ncc(=O)[nH]c2=O)cc1Cl (centres unmarked) [Compound 1]
110 | CC(C)(c1nc(-c2cccs2)c(CC(=O)OC2CCOC2=O)s1)c1c(Cl)cc(-n2ncc(=O)[nH]c2=O)cc1Cl (centres unmarked) [Compound 5]
100 | CC(C)(c1nc(-c2ccccc2)c(CSC2CCOC2=O)s1)c1c(Cl)cc(-n2ncc(=O)[nH]c2=O)cc1Cl (centres unmarked) [Compound 116]
112 | CON(C)C(=O)c1sc(C(C)(C)c2c(Cl)cc(-n3ncc(=O)[nH]c3=O)cc2Cl)nc1-c1ccccc1 [Compound 89]
146 | CCCC(=O)OCOC(=O)c1sc(C(C)(C)c2c(Cl)cc(-n3ncc(=O)[nH]c3=O)cc2Cl)nc1-c1ccccc1 [Compound 108]
180 | CC(C)(c1nc(-c2ccccc2)c(C(=O)OCC(F)(F)F)s1)c1c(Cl)cc(-n2ncc(=O)[nH]c2=O)cc1Cl [Compound 78]
163 | CC1(C)OCC(COC(=O)c2sc(C(C)(C)c3c(Cl)cc(-n4ncc(=O)[nH]c4=O)cc3Cl)nc2-c2ccccc2)O1 (centres unmarked) [Compound 92]
155 | CCOC(=O)CCc1sc(C(C)(C)c2c(Cl)cc(-n3ncc(=O)[nH]c3=O)cc2Cl)nc1-c1ccccc1 [Compound 80]
130 | CC(C)(c1nc(-c2ccccc2)c(C(=O)OCC2COC(=S)O2)s1)c1c(Cl)cc(-n2ncc(=O)[nH]c2=O)cc1Cl (centres unmarked) [Compound 111]
208 | CC(C)(c1nc(-c2ccccc2)c(C(=O)OC2CCOC2=O)s1)c1c(Cl)cc(-n2ncc(=O)[nH]c2=O)cc1Cl (centres unmarked) [Compound 3]
104 | CC(OC(=O)OCCS(C)(=O)=O)OC(=O)c1sc(C(C)(C)c2c(Cl)cc(-n3ncc(=O)[nH]c3=O)cc2Cl)nc1-c1ccccc1 (centres unmarked) [Compound 110]

melting point [°C] | SMILES
151 | COCCOCCOC(=O)c1sc(C(C)(C)c2c(Cl)cc(-n3ncc(=O)[nH]c3=O)cc2Cl)nc1-c1ccccc1 [Compound 82]
212 | CC(C)(c1nc(-c2ccccc2)c(C(=O)SC2CCOC2=O)s1)c1c(Cl)cc(-n2ncc(=O)[nH]c2=O)cc1Cl (centres unmarked) [Compound 4]
220 | CN(C)S(=O)(=O)N1CCN(CCOC(=O)c2sc(C(C)(C)c3c(Cl)cc(-n4ncc(=O)[nH]c4=O)cc3Cl)nc2-c2ccccc2)CC1 [Compound 84]
144 | CC(C)(c1nc(-c2ccccc2)c(C(=O)OC2COC(=O)C2O)s1)c1c(Cl)cc(-n2ncc(=O)[nH]c2=O)cc1Cl (centres unmarked) [Compound 131]
130 | CC(C)(c1nc(-c2ccccc2)c(C(=O)OCOC(=O)C2CCCCC2)s1)c1c(Cl)cc(-n2ncc(=O)[nH]c2=O)cc1Cl [Compound 125]
180 | CC(C)(c1nc(-c2ccccc2)c(C(=O)OC2CCCC(OC(=O)c3sc(C(C)(C)c4c(Cl)cc(-n5ncc(=O)[nH]c5=O)cc4Cl)nc3-c3ccccc3)C2)s1)c1c(Cl)cc(-n2ncc(=O)[nH]c2=O)cc1Cl (centres unmarked) [Compound 139]
174 | Cc1nc(C(C)(C)c2c(Cl)cc(-n3ncc(=O)[nH]c3=O)cc2Cl)sc1C(=O)c1ccccc1 [Compound 107]
88 | CCOP(=O)(COC(=O)c1sc(C(C)(C)c2c(Cl)cc(-n3ncc(=O)[nH]c3=O)cc2Cl)nc1-c1ccccc1)OCC
150 | CN(C)S(=O)(=O)NCCOC(=O)c1sc(C(C)(C)c2c(Cl)cc(-n3ncc(=O)[nH]c3=O)cc2Cl)nc1-c1ccccc1 [Compound 76]
157 | CCOC(=O)C(Cl)(Cl)c1ccccc1-c1nc(C(C)(C)c2c(Cl)cc(-n3ncc(=O)[nH]c3=O)cc2Cl)no1 [Compound 6]
180 | C#CCOC(=O)c1sc(C(C)(C)c2c(Cl)cc(-n3ncc(=O)[nH]c3=O)cc2Cl)nc1-c1ccccc1 [Compound 88]
154 | C[S+]([O-])CSC(=O)Cc1sc(C(C)(C)c2c(Cl)cc(-n3ncc(=O)[nH]c3=O)cc2Cl)nc1-c1ccccc1 (centres unmarked) [Compound 104]
110 | CC(OC(=O)c1sc(C(C)(C)c2c(Cl)cc(-n3ncc(=O)[nH]c3=O)cc2Cl)nc1-c1ccccc1)OC(=O)C(c1ccccc1)C1CCCC1 (centres unmarked) [Compound 141]
133 | CC(C)(c1nc(-c2ccccc2)c(C(=O)OCCN2CCN(S(N)(=O)=O)CC2)s1)c1c(Cl)cc(-n2ncc(=O)[nH]c2=O)cc1Cl [Compound 79]
112 | CN1CCN(CCOC(=O)c2sc(C(C)(C)c3c(Cl)cc(-n4ncc(=O)[nH]c4=O)cc3Cl)nc2-c2ccccc2)S1(=O)=O [Compound 128]
80 | CCCCCCCCCCCCCCCOC(=O)Cc1sc(C(C)(C)c2c(Cl)cc(-n3ncc(=O)[nH]c3=O)cc2Cl)nc1-c1ccccc1 [Compound 2]
212 | CC(=O)c1sc(C(C)(C)c2c(Cl)cc(-n3ncc(=O)[nH]c3=O)cc2Cl)nc1-c1ccccc1 [Compound 105]
100 | COC(=O)C(CCCO)OC(=O)c1sc(C(C)(C)c2c(Cl)cc(-n3ncc(=O)[nH]c3=O)cc2Cl)nc1-c1ccccc1 (centres unmarked) [Compound 121]
196 | CC(C)(c1nc(-c2ccccc2)c(C(=O)OCCN2CCN(S(=O)(=O)N3CCCC3)CC2)s1)c1c(Cl)cc(-n2ncc(=O)[nH]c2=O)cc1Cl [Compound 146]
